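All cell lines were grown in 96-well plates and treated with compound for 48 hours. GI50 marks 50% less growth. TGI denotes the concentration required for complete inhibition of growth.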
What was measured:
Assay in all cases: growth of human tumour cells (NCI), 48 h
[1] = system: DU-145 prostate
[2] = system: NCI-H522 lung
[3] = system: NCI/ADR-RES ovarian
[4] = system: SW-620 colon
[5] = system: U251 CNS
[6] = system: HT29 colon
[7] = system: UACC-62 melanoma
[8] = system: 786-0 renal
[9] = system: ACHN renal
[10] = system: SK-OV-3 ovarian
[11] = system: MALME-3M melanoma
[12] = system: CAKI-1 renal
[13] = system: SNB-75 CNS
[14] = system: MDA-MB-435
[15] = system: HCT-15 colon
[16] = system: HS 578T breast
[17] = system: TK-10 renal
[18] = system: UACC-257 melanoma
[19] = system: A498 renal
[20] = system: EKVX NSCLC
[21] = system: SK-MEL-28 melanoma
[22] = system: HL-60(TB) leukemia
[23] = system: MDA-MB-231 breast
[24] = system: HCT-116 colon
[25] = system: HOP-92 NSCLC
[26] = system: SR leukemia
[27] = system: MOLT-4 leukemia
[28] = system: A549 NSCLC
[29] = system: BT-549 breast
[30] = system: T-47D breast
[31] = system: SF-295 CNS
[32] = system: SF-268 CNS
[33] = system: HCC-2998 colon
[34] = system: NCI-H460 lung
[35] = system: OVCAR-5 ovarian
[36] = system: KM12 colon
[37] = system: COLO 205 colon
[38] = system: OVCAR-3 ovarian
[39] = system: OVCAR-8 ovarian
[40] = system: CCRF-CEM leukemia
[41] = system: NCI-H226 lung
[42] = system: SK-MEL-5 melanoma
[43] = system: SF-539 CNS
[44] = system: UO-31 renal
[45] = system: M14 melanoma
[46] = system: SK-MEL-2 melanoma
[47] = system: PC-3 prostate
[48] = system: MCF7 breast
[49] = system: NCI-H23 lung
[50] = system: SN12C renal
[51] = system: SNB-19 CNS
[52] = system: RPMI-8226 leukemia
[53] = system: OVCAR-4 ovarian
[54] = system: HOP-62 NSCLC
[55] = system: RXF 393 renal
[56] = system: IGROV1 ovarian
[57] = system: K-562 leukemia

COc1cc(/C=C/C(=O)c2c(C)nc3ccccc3c2C)ccc1OCCCCOc1cc2c(cc1OC)C(=O)N1CCC[C@H]1C=N2
GI50 [1]: 0.368 µM
TGI [1]: 1.13 µM
GI50 [2]: 0.339 µM
TGI [2]: 1.26 µM
GI50 [3]: 3.06 µM
TGI [3]: 40.4 µM
GI50 [4]: 0.203 µM
TGI [4]: 0.538 µM
GI50 [5]: 0.305 µM
TGI [5]: 0.955 µM
GI50 [6]: 0.403 µM
TGI [6]: 2.02 µM
GI50 [7]: 0.6 µM
TGI [7]: 2.02 µM
GI50 [8]: 0.602 µM
TGI [8]: 1.86 µM
GI50 [9]: 1.46 µM
TGI [9]: 3.22 µM
GI50 [10]: 1.18 µM
TGI [10]: 3.08 µM
GI50 [11]: 0.554 µM
TGI [11]: 2.37 µM
GI50 [12]: 0.331 µM
TGI [12]: 1.44 µM
GI50 [13]: 0.334 µM
TGI [13]: 0.929 µM
GI50 [14]: 0.274 µM
TGI [14]: 0.873 µM
GI50 [15]: 1.71 µM
TGI [15]: 5.18 µM
GI50 [16]: 0.229 µM
TGI [16]: 0.624 µM
GI50 [17]: 0.403 µM
TGI [17]: 3.2 µM
GI50 [18]: 0.261 µM
TGI [18]: 0.822 µM
GI50 [19]: 0.286 µM
TGI [19]: 0.779 µM
GI50 [20]: 1.74 µM
TGI [20]: 3.56 µM
GI50 [21]: 0.214 µM
TGI [21]: 0.647 µM
GI50 [22]: 0.196 µM
TGI [22]: 0.514 µM
GI50 [23]: 0.606 µM
TGI [23]: 3.51 µM
GI50 [24]: 0.432 µM
TGI [24]: 6.49 µM
GI50 [25]: 0.19 µM
TGI [25]: 0.632 µM
GI50 [26]: 0.325 µM
TGI [26]: > 100 µM
GI50 [27]: 0.325 µM
TGI [27]: 1.12 µM
GI50 [28]: 0.46 µM
TGI [28]: 4.17 µM
GI50 [29]: 0.188 µM
TGI [29]: 0.482 µM
GI50 [30]: 0.333 µM
TGI [30]: 1.36 µM
GI50 [31]: 0.416 µM
TGI [31]: 1.56 µM
GI50 [32]: 0.277 µM
TGI [32]: 1.04 µM
GI50 [33]: 0.519 µM
TGI [33]: 1.16 µM
GI50 [34]: 0.832 µM
TGI [34]: 2.58 µM
GI50 [35]: 0.528 µM
TGI [35]: 3.35 µM
GI50 [36]: 0.308 µM
TGI [36]: 0.839 µM
GI50 [37]: 0.74 µM
TGI [37]: 2.14 µM
GI50 [38]: 0.217 µM
TGI [38]: 0.631 µM
GI50 [39]: 0.245 µM
TGI [39]: 0.703 µM
GI50 [40]: 0.225 µM
TGI [40]: 1.48 µM
GI50 [41]: 1.3 µM
TGI [41]: 3.26 µM
GI50 [42]: 0.517 µM
TGI [42]: 1.47 µM
GI50 [43]: 0.55 µM
TGI [43]: 1.54 µM
GI50 [44]: 0.252 µM
TGI [44]: 1.08 µM
GI50 [45]: 1.16 µM
TGI [45]: > 100 µM
GI50 [46]: 0.414 µM
TGI [46]: 0.978 µM
GI50 [47]: 0.296 µM
TGI [47]: 1.35 µM
GI50 [48]: 0.238 µM
TGI [48]: 0.975 µM
GI50 [49]: 0.396 µM
TGI [49]: 1.42 µM
GI50 [50]: 0.509 µM
TGI [50]: 9.87 µM
GI50 [51]: 0.872 µM
TGI [51]: 2.57 µM
GI50 [52]: 0.209 µM
TGI [52]: 0.585 µM
GI50 [53]: 0.47 µM
TGI [53]: 4.62 µM
GI50 [54]: 1.71 µM
TGI [54]: 6.93 µM

COc1cc(/C=C/C(=O)c2ccc(F)cc2)ccc1OCCCCCOc1cc2c(cc1OC)C(=O)N1CCCC1C=N2 (configuration not stated)
GI50 [1]: 0.0249 µM
TGI [1]: 0.0579 µM
GI50 [2]: 0.0318 µM
TGI [2]: 0.249 µM
GI50 [3]: 0.239 µM
TGI [3]: 2.47 µM
GI50 [55]: 0.11 µM
TGI [55]: 0.283 µM
GI50 [6]: < 0.016 µM
TGI [6]: 1.48 µM
GI50 [7]: 0.0582 µM
TGI [7]: 0.222 µM
GI50 [56]: 0.0646 µM
TGI [56]: 11.3 µM
GI50 [9]: 0.0197 µM
TGI [9]: 0.368 µM
GI50 [10]: 0.212 µM
TGI [10]: 6.06 µM
GI50 [11]: 0.212 µM
TGI [11]: 0.439 µM
GI50 [13]: 0.034 µM
TGI [13]: 0.187 µM
GI50 [14]: 0.0339 µM
TGI [14]: 0.145 µM
GI50 [15]: 0.0588 µM
TGI [15]: 1.41 µM
GI50 [16]: 0.0298 µM
TGI [16]: 0.223 µM
GI50 [17]: 0.123 µM
TGI [17]: 0.981 µM
GI50 [18]: 0.238 µM
TGI [18]: 1.17 µM
GI50 [19]: 0.138 µM
TGI [19]: 0.331 µM
GI50 [20]: 0.151 µM
TGI [20]: 0.601 µM
GI50 [21]: 0.194 µM
TGI [21]: 0.473 µM
GI50 [22]: 0.0405 µM
GI50 [23]: 0.282 µM
TGI [23]: 1.96 µM
GI50 [25]: 0.158 µM
TGI [25]: 0.575 µM
GI50 [26]: < 0.01 µM
TGI [26]: < 0.0113 µM
GI50 [27]: < 0.01 µM
TGI [27]: 0.0418 µM
GI50 [57]: 0.0306 µM
GI50 [29]: 0.0214 µM
TGI [29]: 0.0974 µM
GI50 [30]: 0.0231 µM
TGI [30]: 1.19 µM
GI50 [31]: < 0.01 µM
TGI [31]: < 0.0108 µM
GI50 [32]: 0.0177 µM
TGI [32]: 0.0613 µM
GI50 [33]: < 0.0174 µM
TGI [33]: 0.0382 µM
GI50 [34]: < 0.01 µM
TGI [34]: 0.0179 µM
GI50 [36]: 0.0147 µM
TGI [36]: 0.0501 µM
GI50 [37]: < 0.0151 µM
TGI [37]: 0.043 µM
GI50 [39]: 0.0253 µM
TGI [39]: 3.28 µM
GI50 [40]: < 0.01 µM
TGI [40]: 0.0258 µM
GI50 [41]: 0.0493 µM
TGI [41]: 1.07 µM
GI50 [42]: 0.0896 µM
TGI [42]: 0.23 µM
GI50 [43]: < 0.0166 µM
TGI [43]: 0.0301 µM
GI50 [44]: 0.0473 µM
TGI [44]: 3.64 µM
GI50 [45]: 0.0491 µM
TGI [45]: 0.266 µM
GI50 [46]: 0.062 µM
TGI [46]: 1.51 µM
GI50 [47]: 0.0208 µM
TGI [47]: 0.215 µM
GI50 [48]: < 0.01 µM
TGI [48]: 0.0395 µM
GI50 [49]: 0.0186 µM
TGI [49]: 0.0662 µM
GI50 [50]: 0.0335 µM
TGI [50]: 2.37 µM
GI50 [51]: < 0.0223 µM
TGI [51]: 3.35 µM
GI50 [52]: 0.0101 µM
TGI [52]: 0.0383 µM
GI50 [53]: 0.0265 µM
TGI [53]: > 100 µM
